# Reference: US9125912B1, “Method of treating ulcerative colitis” (KING SAUD UNIVERSITY, priority 2015, dated 2015)
# Test system: ulcerative colitis induced by acetic acid
# Assay: Ulcerative colitis induced by acetic acid in rats, macroscopic parameters
# Format: in vivo, Male Wistar rats
# Settings: from ulcer index, oral once daily for 5 days before induction, extracts 400 mg/kg, volatile oil 50 mg/kg, dexamethasone 0.1 mg/kg
# Text: The extracts (total alcohol extract, total phenolic contents and volatile oil) of the three plants under investigation were freshly suspended in distilled water just before administration by the aid of Tween 80.
# The extracts of Ocimum americanum, Ocimum basilicum and Ocimum basilicum var. thyrsiflora were independently administered to rats five days prior to ulcer induction. In detail, twelve experimental groups, each of 6 Male Wistar rats were used. Rats of groups 1 and 2 received the vehicle (5 mL/kg) and served as normal control and control colitis groups. […] Rats of groups 4-12 received the volatile oil extract, the total alcohol extract and the total phenolic extract of each of the three plants. Doses of 400 mg/kg of the total alcohol extract and the phenolic content were administered. Doses of 50 mg/kg of the volatile oil were administered. All medications were administered orally, once daily for 5 successive days and the last dose was administered 2 hours before colitis induction.
# Animals were fasted overnight, with access to water ad libitum. Under ether anesthesia a solution of 2 mL (4%, v/v) acetic acid in saline was slowly infused into the colon through the polyethylene catheter 2 mm diameter that was inserted into the lumen of the colon via the anus to a distance of 8 cm. […]
# The colon specimens were weighted and wet weight/length ratio was calculated for all the rats. The specimens were examined under a dissecting microscope and the lesion scores were quantified by scoring system (0-5).
# Ulcer area was measured using plane glass square. Each cell on the glass square was 1 mm^2 in area and the number of cells was counted and the ulcer area was determined for each colon.
# Ulcer index (UI) was measured by summing the lesion score and the ulcer area for each colon specimen. The curative ratio was determined according to the formula: Curative ratio=Control UI−Test UI/Control UI×100.
# Data were expressed as mean±S. D. Statistical analysis was done by using SPSS 14. Statistical significance of differences between two means was assessed by unpaired Student's ‘t’ test. […]
compound,measurement,setting,value
C[C@@H]1C[C@H]2[C@@H]3CCC4=CC(=O)C=C[C@]4(C)[C@@]3(F)[C@@H](O)C[C@]2(C)[C@@]1(O)C(=O)CO [Dexamethasone],% Protection from control colitis,,71.54%
same,% Protection from control colitis,listed as dexamesthasone,about 71.54%
same,% Protection from control colitis,listed as dexamethasone,71.54%
